Measurements taken from the NIST ThermoML archive (doi:10.1021/acs.jced.6b00688).

Experiment: xn = mol fraction of the nth substance listed
Conditions: 100 kPa, Liquid; for viscosity: Falling or rolling sphere viscometry; for mass density: Vibrating tube method

CCCCCCCO [heptan-1-ol] + CC1CCCCC1
Conditions	mass density [kg/m3]	viscosity [mPa·s]
293.15 K, x2 = 0.1004	817.38	5.541
293.15 K, x2 = 0.1991	812.34	4.404
293.15 K, x2 = 0.3134	806.43	3.336
293.15 K, x2 = 0.399	801.91	2.649
293.15 K, x2 = 0.4994	796.51	2.055
293.15 K, x2 = 0.5997	790.98	1.603
293.15 K, x2 = 0.6987	785.57	1.275
293.15 K, x2 = 0.7995	779.94	1.03
293.15 K, x2 = 0.8995	774.56	0.845
298.15 K, x2 = 0.1004	813.81	4.649
298.15 K, x2 = 0.1991	808.71	3.773
298.15 K, x2 = 0.3134	802.7	2.924
298.15 K, x2 = 0.399	798.1	2.325
298.15 K, x2 = 0.4994	792.62	1.83
298.15 K, x2 = 0.5997	787	1.448
298.15 K, x2 = 0.6987	781.49	1.165
298.15 K, x2 = 0.7995	775.77	0.951
298.15 K, x2 = 0.8995	770.3	0.79
303.15 K, x2 = 0.1004	810.21	4.037
303.15 K, x2 = 0.1991	805.04	3.261
303.15 K, x2 = 0.3134	798.92	2.548
303.15 K, x2 = 0.399	794.25	2.055
303.15 K, x2 = 0.4994	788.68	1.64
303.15 K, x2 = 0.5997	782.98	1.314
303.15 K, x2 = 0.6987	777.38	1.068
303.15 K, x2 = 0.7995	771.56	0.879
303.15 K, x2 = 0.8995	766	0.736
308.15 K, x2 = 0.1004	806.59	3.484
308.15 K, x2 = 0.1991	801.33	2.838
308.15 K, x2 = 0.3134	795.12	2.235
308.15 K, x2 = 0.399	790.37	1.827
308.15 K, x2 = 0.4994	784.72	1.476
308.15 K, x2 = 0.5997	778.93	1.197
308.15 K, x2 = 0.6987	773.24	0.983
308.15 K, x2 = 0.7995	767.32	0.816
308.15 K, x2 = 0.8995	761.67	0.702
313.15 K, x2 = 0.1004	802.94	3.027
313.15 K, x2 = 0.1991	797.6	2.485
313.15 K, x2 = 0.3134	791.3	1.932
313.15 K, x2 = 0.399	786.47	1.633
313.15 K, x2 = 0.4994	780.73	1.335
313.15 K, x2 = 0.5997	774.85	1.094
313.15 K, x2 = 0.6987	769.07	0.907
313.15 K, x2 = 0.7995	763.06	0.759
313.15 K, x2 = 0.8995	757.31	0.645
318.15 K, x2 = 0.1004	799.26	2.643
318.15 K, x2 = 0.1991	793.83	2.188
318.15 K, x2 = 0.3134	787.42	1.749
318.15 K, x2 = 0.399	782.53	1.468
318.15 K, x2 = 0.4994	776.7	1.213
318.15 K, x2 = 0.5997	770.74	1.004
318.15 K, x2 = 0.6987	764.87	0.84
318.15 K, x2 = 0.7995	758.76	0.708
318.15 K, x2 = 0.8995	752.93	0.607
323.15 K, x2 = 0.1004	795.54	2.322
323.15 K, x2 = 0.1991	790.03	1.937
323.15 K, x2 = 0.3134	783.52	1.559
323.15 K, x2 = 0.399	778.55	1.324
323.15 K, x2 = 0.4994	772.64	1.106
323.15 K, x2 = 0.5997	766.59	0.924
323.15 K, x2 = 0.6987	760.64	0.779
323.15 K, x2 = 0.7995	754.43	0.662
323.15 K, x2 = 0.8995	748.52	0.572
328.15 K, x2 = 0.1004	791.78	2.05
328.15 K, x2 = 0.1991	786.18	1.723
328.15 K, x2 = 0.3134	779.58	1.396
328.15 K, x2 = 0.399	774.54	1.2
328.15 K, x2 = 0.4994	768.55	1.011
328.15 K, x2 = 0.5997	762.41	0.853
328.15 K, x2 = 0.6987	756.36	0.725
328.15 K, x2 = 0.7995	750.06	0.621
328.15 K, x2 = 0.8995	744.07	0.54
333.15 K, x2 = 0.1004	787.98	1.82
333.15 K, x2 = 0.1991	782.3	1.541
333.15 K, x2 = 0.3134	775.6	1.254
333.15 K, x2 = 0.399	770.5	1.092
333.15 K, x2 = 0.4994	764.42	0.928
333.15 K, x2 = 0.5997	758.17	0.789
333.15 K, x2 = 0.6987	752.05	0.676
333.15 K, x2 = 0.7995	745.66	0.584
333.15 K, x2 = 0.8995	739.59	0.512

CCCCCCCO [heptan-1-ol] + CCCCCCCCCCCC
Conditions	mass density [kg/m3]	viscosity [mPa·s]
293.15 K, x2 = 0.0998	810.76	5.346
293.15 K, x2 = 0.2005	800.65	4.224
293.15 K, x2 = 0.302	791.28	3.358
293.15 K, x2 = 0.3991	783.4	2.778
293.15 K, x2 = 0.4989	776.02	2.363
293.15 K, x2 = 0.5994	769.4	2.052
293.15 K, x2 = 0.6975	763.54	1.835
293.15 K, x2 = 0.7959	758.2	1.677
293.15 K, x2 = 0.8984	753.19	1.538
298.15 K, x2 = 0.0998	807.24	4.555
298.15 K, x2 = 0.2005	797.07	3.626
298.15 K, x2 = 0.302	787.66	2.917
298.15 K, x2 = 0.3991	779.77	2.444
298.15 K, x2 = 0.4989	772.37	2.098
298.15 K, x2 = 0.5994	765.74	1.837
298.15 K, x2 = 0.6975	759.88	1.653
298.15 K, x2 = 0.7959	754.54	1.516
298.15 K, x2 = 0.8984	749.53	1.397
303.15 K, x2 = 0.0998	803.68	3.91
303.15 K, x2 = 0.2005	793.46	3.144
303.15 K, x2 = 0.302	784.02	2.559
303.15 K, x2 = 0.3991	776.11	2.168
303.15 K, x2 = 0.4989	768.69	1.878
303.15 K, x2 = 0.5994	762.06	1.655
303.15 K, x2 = 0.6975	756.19	1.498
303.15 K, x2 = 0.7959	750.85	1.38
303.15 K, x2 = 0.8984	745.85	1.276
308.15 K, x2 = 0.0998	800.09	3.381
308.15 K, x2 = 0.2005	789.82	2.745
308.15 K, x2 = 0.302	780.35	2.26
308.15 K, x2 = 0.3991	772.42	1.935
308.15 K, x2 = 0.4989	765	1.69
308.15 K, x2 = 0.5994	758.35	1.5
308.15 K, x2 = 0.6975	752.48	1.364
308.15 K, x2 = 0.7959	747.14	1.262
308.15 K, x2 = 0.8984	742.15	1.172
313.15 K, x2 = 0.0998	796.48	2.94
313.15 K, x2 = 0.2005	786.16	2.412
313.15 K, x2 = 0.302	776.66	2.009
313.15 K, x2 = 0.3991	768.72	1.736
313.15 K, x2 = 0.4989	761.28	1.528
313.15 K, x2 = 0.5994	754.63	1.365
313.15 K, x2 = 0.6975	748.76	1.247
313.15 K, x2 = 0.7959	743.42	1.158
313.15 K, x2 = 0.8984	738.43	1.08
318.15 K, x2 = 0.0998	792.81	2.573
318.15 K, x2 = 0.2005	782.46	2.134
318.15 K, x2 = 0.302	772.94	1.795
318.15 K, x2 = 0.3991	764.98	1.566
318.15 K, x2 = 0.4989	757.54	1.388
318.15 K, x2 = 0.5994	750.88	1.247
318.15 K, x2 = 0.6975	745.01	1.145
318.15 K, x2 = 0.7959	739.67	1.066
318.15 K, x2 = 0.8984	734.71	0.999
323.15 K, x2 = 0.0998	789.12	2.266
323.15 K, x2 = 0.2005	778.74	1.896
323.15 K, x2 = 0.302	769.19	1.612
323.15 K, x2 = 0.3991	761.22	1.417
323.15 K, x2 = 0.4989	753.77	1.265
323.15 K, x2 = 0.5994	747.11	1.143
323.15 K, x2 = 0.6975	741.23	1.054
323.15 K, x2 = 0.7959	735.9	0.986
323.15 K, x2 = 0.8984	730.96	0.928
328.15 K, x2 = 0.0998	785.39	2.006
328.15 K, x2 = 0.2005	774.97	1.694
328.15 K, x2 = 0.302	765.4	1.454
328.15 K, x2 = 0.3991	757.43	1.288
328.15 K, x2 = 0.4989	749.97	1.158
328.15 K, x2 = 0.5994	743.31	1.051
328.15 K, x2 = 0.6975	737.44	0.974
328.15 K, x2 = 0.7959	732.12	0.915
328.15 K, x2 = 0.8984	727.21	0.864
333.15 K, x2 = 0.0998	781.62	1.785
333.15 K, x2 = 0.2005	771.18	1.522
333.15 K, x2 = 0.302	761.59	1.317
333.15 K, x2 = 0.3991	753.6	1.175
333.15 K, x2 = 0.4989	746.14	1.063
333.15 K, x2 = 0.5994	739.49	0.97
333.15 K, x2 = 0.6975	733.61	0.902
333.15 K, x2 = 0.7959	728.31	0.851
333.15 K, x2 = 0.8984	723.43	0.807
